“And” between values parts separate entries of the source, which are not always exact repeats. Equal entries are not always repeated. Records with an inconclusive call do not appear.
System: CD8F1 mice, subcutaneous mammary adenocarcinoma, T/C%
Assay: NCI In Vivo Anticancer Drug Screen. Data for tumor model Mammary Adenocarcinoma CD8F1 (subcutaneous) in CD8F1
Conditions: higher = larger tumour
In short: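 Mice carrying transplanted tumors received test compound, and survival or tumor size was recorded. Each value is the treated-group measurement divided by the corresponding measurement in vehicle-dosed controls.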

[1] = endpoint: median tumor weight (est.), dose: 12.5 mg/kg/injection, schedule: Q07DX005 (ip), vehicle: saline
[2] = endpoint: median tumor weight (est.), dose: 25.0 mg/kg/injection, schedule: Q07DX005 (ip), vehicle: saline
[3] = endpoint: median tumor weight (est.), dose: 50.0 mg/kg/injection, schedule: Q07DX005 (ip), vehicle: saline
[4] = endpoint: median tumor weight (est.), dose: 100.0 mg/kg/injection, schedule: Q07DX005 (ip), vehicle: saline
[5] = endpoint: median tumor weight (est.), dose: 400.0 mg/kg/injection, schedule: Q07DX005 (ip), vehicle: saline
[6] = endpoint: median tumor weight (est.), dose: 12.5 mg/kg/injection, schedule: Q07DX005 (ip), vehicle: Klucel (hydroxypropylcellulose) (HPC)
[7] = endpoint: median tumor weight (est.), dose: 25.0 mg/kg/injection, schedule: Q07DX005 (ip), vehicle: Klucel (hydroxypropylcellulose) (HPC)
[8] = endpoint: median tumor weight (est.), dose: 50.0 mg/kg/injection, schedule: Q07DX005 (ip), vehicle: Klucel (hydroxypropylcellulose) (HPC)
[9] = endpoint: median tumor weight (est.), dose: 100.0 mg/kg/injection, schedule: Q07DX005 (ip), vehicle: Klucel (hydroxypropylcellulose) (HPC)
[10] = endpoint: median tumor weight (est.), dose: 200.0 mg/kg/injection, schedule: Q07DX005 (ip), vehicle: saline

CC1=CC(=NN=c2cc(C)n([O-])c(C)c2)C=C(C)[N+]1=O
T/C (endpoint: median tumor weight change, dose: 100.0 mg/kg/injection, schedule: Q01DX001 (ip), vehicle: suspension in saline): 76 % of control | T/C (endpoint: median tumor weight change, dose: 125.0 mg/kg/injection, schedule: Q01DX001 (ip), vehicle: saline with Tween-80): 118 % of control | T/C (endpoint: median tumor weight change, dose: 125.0 mg/kg/injection, schedule: Q01DX001 (ip), vehicle: saline): 55 % of control | T/C (endpoint: median tumor weight change, dose: 200.0 mg/kg/injection, schedule: Q01DX001 (ip), vehicle: suspension in saline): 85 % of control | T/C (endpoint: median tumor weight change, dose: 250.0 mg/kg/injection, schedule: Q01DX001 (ip), vehicle: saline): 117 % of control | T/C (endpoint: median tumor weight change, dose: 400.0 mg/kg/injection, schedule: Q01DX001 (ip), vehicle: suspension in saline): 80 % of control | T/C (endpoint: median tumor weight change, dose: 500.0 mg/kg/injection, schedule: Q01DX001 (ip), vehicle: saline with Tween-80): 94 % of control | T/C (endpoint: median tumor weight change, dose: 500.0 mg/kg/injection, schedule: Q01DX001 (ip), vehicle: saline): 100 % of control | T/C (endpoint: median tumor weight change, dose: 800.0 mg/kg/injection, schedule: Q01DX001 (ip), vehicle: suspension in saline): 40 % of control | T/C (endpoint: median tumor weight change, dose: 1000.0 mg/kg/injection, schedule: Q01DX001 (ip), vehicle: saline): 17 % of control

CCCCCCCCCCCCCCCC(=O)Nc1ccn(C2OC(CO)C(O)C2O)c(=O)n1 (stereo not drawn)
T/C [1]: 58 % of control | T/C [2]: 63 % of control | T/C [3]: 65 % of control | T/C [4]: 31 % of control | T/C [5]: 14 % of control

CCCCCC[C@H]([C@H](C)O)n1cnc2c(N)ncnc21
T/C [6]: 60 % of control | T/C [7]: 305 % of control | T/C [8]: 206 % of control and 84 % of control | T/C [9]: 106 % of control | T/C (endpoint: median tumor weight change, dose: 50.0 mg/kg/injection, schedule: Q01DX001 (ip), vehicle: Klucel (hydroxypropylcellulose) (HPC)): 68 % of control | T/C (endpoint: median tumor weight change, dose: 100.0 mg/kg/injection, schedule: Q01DX001 (ip), vehicle: Klucel (hydroxypropylcellulose) (HPC)): 106 % of control | T/C (endpoint: median tumor weight change, dose: 200.0 mg/kg/injection, schedule: Q01DX001 (ip), vehicle: Klucel (hydroxypropylcellulose) (HPC)): 79 % of control

ClCC[N+]12CC[N+](CCCl)(CC1)C2
T/C (endpoint: mean tumor weight, dose: 12.5 mg/kg/injection, schedule: Q07DX006 (ip), vehicle: water): 16 % of control | T/C (endpoint: mean tumor weight, dose: 25.0 mg/kg/injection, schedule: Q07DX006 (ip), vehicle: water): 85 % of control | T/C (endpoint: mean tumor weight, dose: 50.0 mg/kg/injection, schedule: Q07DX006 (ip), vehicle: water): 72 % of control | T/C (endpoint: mean tumor weight, dose: 100.0 mg/kg/injection, schedule: Q07DX006 (ip), vehicle: water): 18 % of control | T/C (endpoint: mean tumor weight, dose: 200.0 mg/kg/injection, schedule: Q07DX006 (ip), vehicle: water): 3 % of control | T/C (endpoint: median tumor weight (est.), dose: 12.5 mg/kg/injection, schedule: Q07DX005 (ip), vehicle: water): 70 % of control | T/C (endpoint: median tumor weight (est.), dose: 25.0 mg/kg/injection, schedule: Q07DX005 (ip), vehicle: water): 54 % of control | T/C [3]: 68 % of control and 50 % of control | T/C (endpoint: median tumor weight (est.), dose: 50.0 mg/kg/injection, schedule: Q07DX005 (ip), vehicle: water): 49 % of control | T/C (endpoint: median tumor weight (est.), dose: 100.0 mg/kg/injection, schedule: Q07DX005 (ip), vehicle: water): 32 % of control | T/C [10]: 20 % of control | T/C [5]: 6 % of control

O=C(Nc1ccc(Cl)c(Cl)c1)Nc1c(Oc2ccc(Cl)c(Cl)c2)ccc(Cl)c1S(=O)(=O)O
T/C (endpoint: median tumor weight (est.), dose: 6.25 mg/kg/injection, schedule: Q07DX005 (ip), vehicle: Klucel (hydroxypropylcellulose) (HPC)): 114 % of control | T/C (endpoint: median tumor weight (est.), dose: 6.25 mg/kg/injection, schedule: Q07DX005 (ip), vehicle: saline): 78 % of control | T/C [6]: 244 % of control | T/C [1]: 123 % of control | T/C [7]: 110 % of control | T/C [2]: 123 % of control | T/C [8]: 318 % of control | T/C [9]: 65 % of control | T/C [4]: 121 % of control | T/C (endpoint: median tumor weight (est.), dose: 200.0 mg/kg/injection, schedule: Q07DX005 (ip), vehicle: Klucel (hydroxypropylcellulose) (HPC)): 323 % of control | T/C [10]: 114 % of control

CC1OC(=O)C(C(C)C)NC(=O)C(C(C)C)OC(=O)C(C(C)C)NC(=O)C(C)OC(=O)C(C(C)C)NC(=O)C(C(C)C)OC(=O)C(C(C)C)NC(=O)C(C)OC(=O)C(C(C)C)NC(=O)C(C(C)C)OC(=O)C(C(C)C)NC1=O (stereo not drawn)
T/C (endpoint: mean tumor weight, dose: 1.0 mg/kg/injection, schedule: Q02DX007 (ip), vehicle: saline): 119 % of control | T/C (endpoint: mean tumor weight, dose: 1.0 mg/kg/injection, schedule: Q07DX006 (ip), vehicle: saline): 49 % of control | T/C (endpoint: mean tumor weight, dose: 2.0 mg/kg/injection, schedule: Q02DX007 (ip), vehicle: saline): 87 % of control | T/C (endpoint: mean tumor weight, dose: 2.0 mg/kg/injection, schedule: Q07DX006 (ip), vehicle: saline): 110 % of control | T/C (endpoint: mean tumor weight, dose: 4.0 mg/kg/injection, schedule: Q02DX007 (ip), vehicle: saline): 97 % of control | T/C (endpoint: mean tumor weight, dose: 4.0 mg/kg/injection, schedule: Q07DX006 (ip), vehicle: saline): 165 % of control | T/C (endpoint: mean tumor weight, dose: 8.0 mg/kg/injection, schedule: Q02DX007 (ip), vehicle: saline): 103 % of control | T/C (endpoint: mean tumor weight, dose: 8.0 mg/kg/injection, schedule: Q07DX006 (ip), vehicle: saline): 84 % of control | T/C (endpoint: mean tumor weight, dose: 16.0 mg/kg/injection, schedule: Q02DX007 (ip), vehicle: saline): 116 % of control | T/C (endpoint: mean tumor weight, dose: 16.0 mg/kg/injection, schedule: Q07DX006 (ip), vehicle: saline): 70 % of control | T/C (endpoint: median tumor weight (est.), dose: 1.25 mg/kg/injection, schedule: Q07DX005 (ip), vehicle: saline with Tween-80): 69 % of control | T/C (endpoint: median tumor weight (est.), dose: 2.5 mg/kg/injection, schedule: Q07DX005 (ip), vehicle: saline with Tween-80): 34 % of control | T/C (endpoint: median tumor weight (est.), dose: 5.0 mg/kg/injection, schedule: Q07DX005 (ip), vehicle: saline with Tween-80): 86 % of control | T/C (endpoint: median tumor weight (est.), dose: 10.0 mg/kg/injection, schedule: Q07DX005 (ip), vehicle: saline with Tween-80): 114 % of control | T/C (endpoint: median tumor weight (est.), dose: 20.0 mg/kg/injection, schedule: Q07DX005 (ip), vehicle: saline with Tween-80): 74 % of control

CC(=O)OC1(C)CC(C)C(=O)C(C(O)CC2CC(=O)NC(=O)C2)C1 (stereo not drawn)
T/C (endpoint: median tumor weight (est.), dose: 94.0 micrograms/kg/injection, schedule: Q07DX005 (ip), vehicle: saline): 57 % of control | T/C (endpoint: median tumor weight (est.), dose: 188.0 micrograms/kg/injection, schedule: Q07DX005 (ip), vehicle: saline): 34 % of control | T/C (endpoint: median tumor weight (est.), dose: 375.0 micrograms/kg/injection, schedule: Q07DX005 (ip), vehicle: saline): 37 % of control | T/C (endpoint: median tumor weight (est.), dose: 750.0 micrograms/kg/injection, schedule: Q07DX005 (ip), vehicle: saline): 32 % of control

CC(C)NC(=O)N(CCCCBr)N=O
T/C (endpoint: median tumor weight change, dose: 49.37 mg/kg/injection, schedule: Q01DX001 (ip), vehicle: Klucel (hydroxypropylcellulose) (HPC)): 43 % of control | T/C (endpoint: median tumor weight change, dose: 62.0 mg/kg/injection, schedule: Q01DX001 (ip), vehicle: Klucel (hydroxypropylcellulose) (HPC)): 42 % of control | T/C (endpoint: median tumor weight change, dose: 98.75 mg/kg/injection, schedule: Q01DX001 (ip), vehicle: Klucel (hydroxypropylcellulose) (HPC)): 34 % of control | T/C (endpoint: median tumor weight change, dose: 197.5 mg/kg/injection, schedule: Q01DX001 (ip), vehicle: Klucel (hydroxypropylcellulose) (HPC)): -13 % of control | T/C (endpoint: median tumor weight change, dose: 395.0 mg/kg/injection, schedule: Q01DX001 (ip), vehicle: Klucel (hydroxypropylcellulose) (HPC)): -66 % of control | T/C (endpoint: median tumor weight change, dose: 500.0 mg/kg/injection, schedule: Q01DX001 (ip), vehicle: Klucel (hydroxypropylcellulose) (HPC)): -41 % of control

CC[C@H]1CN2CCc3cc(OC)c(OC)cc3[C@@H]2C[C@@H]1C[C@H]1NCCc2cc(OC)c(OC)cc21
T/C (endpoint: mean tumor weight, dose: 0.88 mg/kg/injection, schedule: Q07DX006 (ip), vehicle: saline): 46 % of control | T/C (endpoint: mean tumor weight, dose: 1.75 mg/kg/injection, schedule: Q07DX005 (ip), vehicle: saline): 163 % of control | T/C (endpoint: mean tumor weight, dose: 1.75 mg/kg/injection, schedule: Q07DX006 (ip), vehicle: saline): 65 % of control | T/C (endpoint: mean tumor weight, dose: 3.5 mg/kg/injection, schedule: Q07DX005 (ip), vehicle: saline): 258 % of control | T/C (endpoint: mean tumor weight, dose: 3.5 mg/kg/injection, schedule: Q07DX006 (ip), vehicle: saline): 42 % of control | T/C (endpoint: mean tumor weight, dose: 7.0 mg/kg/injection, schedule: Q07DX005 (ip), vehicle: saline): 153 % of control | T/C (endpoint: mean tumor weight, dose: 7.0 mg/kg/injection, schedule: Q07DX006 (ip), vehicle: saline): 73 % of control | T/C (endpoint: mean tumor weight, dose: 14.0 mg/kg/injection, schedule: Q07DX005 (ip), vehicle: saline): 156 % of control | T/C (endpoint: mean tumor weight, dose: 14.0 mg/kg/injection, schedule: Q07DX006 (ip), vehicle: saline): 96 % of control | T/C (endpoint: median tumor weight (est.), dose: 1.75 mg/kg/injection, schedule: Q07DX005 (ip), vehicle: saline): 214 % of control | T/C (endpoint: median tumor weight (est.), dose: 3.5 mg/kg/injection, schedule: Q07DX005 (ip), vehicle: saline): 166 % of control | T/C (endpoint: median tumor weight (est.), dose: 7.0 mg/kg/injection, schedule: Q07DX005 (ip), vehicle: saline): 92 % of control | T/C (endpoint: median tumor weight (est.), dose: 28.0 mg/kg/injection, schedule: Q07DX005 (ip), vehicle: saline): 86 % of control

From PubChem BioAssay AID220 (DTP/NCI, 2004)
